Results: patent US8293768B2, “Organic compounds” (Novartis AG, priority 2006, dated 2012)

Structure (SMILES) | melting point
CNC(=O)c1ccc(CN2CCN(c3nc(C)c(-c4cc(C)[nH]n4)s3)C2=O)cc1 [Example 40.2, N-methyl-4-((3-(4-methyl-5-(3-methyl-1H-pyrazol-5-yl)thiazol-2-yl)-2-oxoimidazolidin-1-yl)methyl)benzamide] | 236 to 238 °C
Cc1csc(NC(=O)c2ccc(CN3CCN(c4nc(C)cs4)C3=O)cc2)n1 [Example 8.10, N-(4-methylthiazol-2-yl)-4-((3-(4-methylthiazol-2-yl)-2-oxoimidazolidin-1-yl)methyl)benzamide] | 197 to 198 °C
COC(=O)c1cnc(N2CCN(CC3CC3)C2=O)s1 [Example 24, methyl 2-(3-(cyclopropylmethyl)-2-oxoimidazolidin-1-yl)thiazole-5-carboxylate] | 124 to 126 °C
Cc1nc(N2CCN(Cc3cccc(C(=O)O)c3)C2=O)sc1C(=O)NCc1ccccc1 [Example 25.3, 3-((3-(5-(benzylcarbamoyl)-4-methylthiazol-2-yl)-2-oxoimidazolidin-1-yl)methyl)benzoic acid] | 143 to 145 °C
Cc1nc(-n2cnn(Cc3ccc(C(F)(F)F)o3)c2=O)sc1C(=O)NCc1cccnc1 [Example 21.6, 4-methyl-2-(5-oxo-1-((5-(trifluoromethyl)furan-2-yl)methyl)-1H-1,2,4-triazol-4(5H)-yl)-N-(pyridin-3-ylmethyl)thiazole-5-carboxamide] | 124 to 125 °C
Cc1nc(N2CCN(Cc3ccc(F)cc3)C2=O)sc1C(=O)NCCN1CCCC1 [Example 8.4, 2-(3-(4-fluorobenzyl)-2-oxoimidazolidin-1-yl)-4-methyl-N-(2-(pyrrolidin-1-yl)ethyl)thiazole-5-carboxamide] | 183 to 184 °C
Cc1nc(N2CCN(Cc3ccc(OC(F)(F)F)cc3)C2=O)sc1C(=O)NCc1cccnc1 [Example 9.22, 4-methyl-2-(2-oxo-3-(4-(trifluoromethoxy)benzyl)imidazolidin-1-yl)-N-(pyridin-3-ylmethyl)thiazole-5-carboxamide] | 165 to 166 °C
Cc1nc(N2C(=O)CN(c3ccc(F)cc3)C2=O)sc1C(=O)NCc1ccccc1 [Example 2, N-benzyl-2-(3-(4-fluorophenyl)-2,5-dioxoimidazolidin-1-yl)-4-methylthiazole-5-carboxamide] | 217 to 219 °C
Cc1nc(N2CCN(Cc3ncoc3-c3ccccc3)C2=O)sc1C(=O)NCc1cccnc1 [Example 32.5, 4-methyl-2-(2-oxo-3-((5-phenyloxazol-4-yl)methyl)imidazolidin-1-yl)-N-(pyridin-3-ylmethyl)thiazole-5-carboxamide] | 78 to 81 °C
Cc1nc(N2CCN(Cc3ccc(OC(F)F)cc3)C2=O)sc1C(=O)NCc1cccnc1 [Example 9.24, 2-(3-(4-(difluoromethoxy)benzyl)-2-oxoimidazolidin-1-yl)-4-methyl-N-(pyridin-3-ylmethyl)thiazole-5-carboxamide] | 166 to 167 °C
Cc1nc(N2CCN(Cc3ccc(C#N)cc3)C2=O)sc1C(=O)NCc1ccccc1 [Example 23, N-benzyl-2-(3-(4-cyanobenzyl)-2-oxoimidazolidin-1-yl)-4-methylthiazole-5-carboxamide] | 176 to 178 °C
Cc1nc(N2CCN(Cc3ccc(F)cc3)C2=O)sc1C(=O)NCc1ccccc1 [Example 9.21, N-benzyl-2-(3-(4-fluorobenzyl)-2-oxoimidazolidin-1-yl)-4-methylthiazole-5-carboxamide] | 192 to 193 °C
Cc1cc(N2CCN(Cc3ccc(C(=O)O)cc3)C2=O)sc1C(=O)NCc1cccnc1 [Example 56, 4-((3-(4-methyl-5-(pyridin-3-ylmethylcarbamoyl)thiophen-2-yl)-2-oxoimidazolidin-1-yl)methyl)benzoic acid] | 120 °C (dec.)
Cc1nc(N2CCN(Cc3ccc(C(F)(F)F)cc3)C2=O)sc1CO [Example 41, 1-(5-(hydroxymethyl)-4-methylthiazol-2-yl)-3-(4-(trifluoromethyl)benzyl)imidazolidin-2-one] | 153 to 154 °C
